SMILES strings stand for the structures. In brackets after ≈: the same amount, converted by molar mass.

Common to all, as to format: functional
For one experiment, the system named is A549. Kind of experiment: Cytotoxicity against human A549 cells after 6 days by MTT assay. Conditions: A549, 144 h, read-out: ED50 (the source's name). On the technique in general: Tetrazolium dyes change colour on reduction, which living cells bring about.
For the next experiment, the system named is SK-MEL. Kind of experiment: Cytotoxicity against human SK-MEL cells after 6 days by MTT assay. Conditions: 144 h, read-out: ED50 (the source's name).
The test system of another experiment is HT-29. Kind of experiment: Cytotoxicity against human HT-29 cells after 6 days by MTT assay. Conditions: HT-29, 144 h, read-out: ED50 (the source's name).
A further experiment concerns Malme-3M. Nature of the experiment: Cytotoxicity against human MALME-3M cells after 6 days by MTT assay. Conditions: 144 h, read-out: ED50 (the source's name).
Another experiment relates to MCF7. Nature of the experiment: Cytotoxicity against human MCF7 cells after 6 days by MTT assay. Conditions: MCF7, 144 h, read-out: ED50 (the source's name).

Take `O=c1cc(-c2ccc([N+](=O)[O-])cc2)oc2ccc(O)cc12`: the EC50 in the experiment with A549 is 5.07 µg/mL (≈ 17.9 µM); in the experiment with SK-MEL, 21 µg/mL (≈ 74.2 µM); with HT-29 it was more than 25 µg/mL; in the experiment on Malme-3M it was more than 25 µg/mL; in the experiment on MCF7, more than 25 µg/mL.

Take `COc1cc(-c2cc(=O)c3cc(O)ccc3o2)cc(OC)c1O[Si](C)(C)C(C)(C)C`: the EC50 came out at 3.19 µg/mL (≈ 7.44 µM) with A549; 2.95 µg/mL (≈ 6.88 µM) in the experiment with SK-MEL; 2.63 µg/mL (≈ 6.14 µM) with HT-29; 5.3 µg/mL (≈ 12.4 µM) in the experiment on Malme-3M; 2.01 µg/mL (≈ 4.69 µM) in the experiment with MCF7.

For the compound `CC(=O)Nc1ccc(-c2cc(=O)c3ccc(OC(C)=O)cc3o2)cc1`, the EC50 is 20.5 µg/mL (≈ 60.9 µM) with A549; 16.9 µg/mL (≈ 50.1 µM) in the experiment with SK-MEL; 19.8 µg/mL (≈ 58.7 µM) in the experiment with HT-29; more than 25 µg/mL in the experiment with Malme-3M; 19.2 µg/mL (≈ 56.9 µM) in the experiment on MCF7.

Consider `COC(=O)c1c(-c2ccc(N)cc2)oc2ccccc2c1=O`, for which the EC50 in the experiment with A549, in the experiment with SK-MEL, in the experiment on HT-29, with Malme-3M and in the experiment on MCF7 was more than 25 µg/mL throughout.

As for `COc1ccc(-c2oc3ccccc3c(=O)c2C(=O)O)cc1`, the EC50 in the experiment with A549, in the experiment on SK-MEL, in the experiment with HT-29, with Malme-3M and in the experiment with MCF7 was more than 25 µg/mL throughout.

Turning to `COc1cc(-c2cc(=O)c3ccc(OC(C)=O)c(OC(C)=O)c3o2)cc(OC)c1O[Si](C)(C)C(C)(C)C`, the EC50 in the experiment on A549 is more than 25 µg/mL; in the experiment with SK-MEL, 0.14 µg/mL (≈ 0.265 µM); in the experiment with HT-29, more than 25 µg/mL; in the experiment with Malme-3M, 0.31 µg/mL (≈ 0.586 µM); in the experiment on MCF7, more than 25 µg/mL.

Turning to `COC(=O)c1c(-c2cc(OC)cc(OC)c2)oc2ccccc2c1=O`, the EC50 is more than 25 µg/mL in the experiment with A549; more than 25 µg/mL with SK-MEL; 6.99 µg/mL (≈ 20.5 µM) in the experiment with HT-29; more than 25 µg/mL in the experiment with Malme-3M; more than 25 µg/mL in the experiment on MCF7.

Consider `O=c1cc(-c2cccc(O)c2)oc2cccc(O)c12`, for which the EC50 in the experiment with A549 is 3.24 µg/mL (≈ 12.7 µM); in the experiment on SK-MEL it was 3.09 µg/mL (≈ 12.2 µM); in the experiment with HT-29, 3.47 µg/mL (≈ 13.6 µM); with Malme-3M, more than 10 µg/mL; with MCF7, 6.93 µg/mL (≈ 27.3 µM).

Turning to `COC(=O)c1c(-c2ccc(O)cc2)oc2ccccc2c1=O`, the EC50 with A549, with SK-MEL, with HT-29, in the experiment on Malme-3M and in the experiment with MCF7 was more than 25 µg/mL each time.

`COc1cc(-c2cc(=O)c3ccc(O)c(O)c3o2)cc(OC)c1O[Si](C)(C)C(C)(C)C`: the EC50 in the experiment with A549 is 3.31 µg/mL (≈ 7.45 µM); in the experiment with SK-MEL it was 0.11 µg/mL (≈ 0.247 µM); with HT-29 it was 0.34 µg/mL (≈ 0.765 µM); in the experiment on Malme-3M, 0.2 µg/mL (≈ 0.45 µM); with MCF7, 0.31 µg/mL (≈ 0.697 µM).

Regarding `COc1cc(-c2cc(=O)c3ccc(O)cc3o2)cc(OC)c1O[Si](C)(C)C(C)(C)C`, the EC50 with A549 is 5.3 µg/mL (≈ 12.4 µM); in the experiment with SK-MEL, more than 25 µg/mL; in the experiment on HT-29, 1 µg/mL (≈ 2.33 µM); in the experiment on Malme-3M it was more than 25 µg/mL; with MCF7, 4.47 µg/mL (≈ 10.4 µM).

On to `Nc1ccc(-c2cc(=O)c3c(O)cc(O)cc3o2)cc1`, for which the EC50 was 2.84 µg/mL (≈ 10.5 µM) in the experiment on A549; 3.86 µg/mL (≈ 14.3 µM) in the experiment with SK-MEL; 3.44 µg/mL (≈ 12.8 µM) in the experiment with HT-29; more than 25 µg/mL in the experiment with Malme-3M; more than 25 µg/mL in the experiment with MCF7.

`COc1ccc2oc(-c3ccc([N+](=O)[O-])cc3)c(C(=O)O)c(=O)c2c1`: the EC50 in the experiment on A549 is more than 25 µg/mL; in the experiment with SK-MEL it was more than 25 µg/mL; with HT-29, more than 25 µg/mL; in the experiment with Malme-3M, more than 25 µg/mL; with MCF7, 15.8 µg/mL (≈ 46.4 µM).

Regarding `COC(=O)c1c(-c2ccc([N+](=O)[O-])cc2)oc2ccc(OC)cc2c1=O`, the EC50 in the experiment with A549 was more than 25 µg/mL; with SK-MEL, 8.18 µg/mL (≈ 23 µM); with HT-29 it was more than 25 µg/mL; with Malme-3M, 24.1 µg/mL (≈ 67.8 µM); in the experiment with MCF7, more than 25 µg/mL.

As to `COc1cc(-c2oc3ccccc3c(=O)c2C(=O)O)cc(OC)c1OC`, the EC50 in the experiment on A549, with SK-MEL, with HT-29, in the experiment on Malme-3M and in the experiment on MCF7 was more than 25 µg/mL in each case.

The values are drawn from ChEMBL document CHEMBL1150207, “Cytotoxicities of some flavonoid analogues” (1991).
